Reference: patent publication US11591300B2, “Oxazole containing compounds as activators of IDO1 and AhR” (The Brigham and Women's Hospital, Inc., priority 2017, dated 2023)
“Also recorded” adds a separate entry of the source. Read-outs that look alike come from different tables or passages of the source.

Tests used:
MODE-K cells [1] = experiment: Relative transcript abundance of target genes in MODE-K cells conditioned with compounds
From the text: 4-ethoxymethylene-2-phenyl-2-oxazol-5-one, (referred to as oxazolone, FIG. 1A) has been widely utilized in models of contact hypersensitivity and when applied to the mucosa has been proposed to cause colitis through its properties as a hapten (Gorbachev and Fairchild 2001). However to date there is limited evidence for hapten-specific antibody production or responses following topical oxazolone sensitization or hapten modified autologous proteins or luminal antigens identified at mucosal sites (Singleton et al. 2016, Yanaba et al. 2008, Wirtz et al. 2007). […] It was then determined whether oxazolone could affect the expression of these transcripts in the intestinal epithelium in a cell intrinsic manner by directly stimulating an immortalized intestinal epithelial cell line (IEC) derived from mouse small intestine, MODE-K, with oxazolone.
To test this, a systematic in vitro system was devised to assess transcriptional and CD1d-restricted responses in IECs in response to stimulation with dietary OxC structures, including 2,4,5-trimethyl-2,5-dihydro-1,3-oxazole (referred to as TMO, FIG. 1A) found in coffee, peanuts, meats and utilized as a food additive, which lacks the 2-phenyl ring, 5-ketone, and 4-ethoxymethylene present in oxazolone (Vitzthum et al. 1975, Stoffesima et al. 1968, Lee et al. 1981, Chang et al. 1968, Ho and Hartman 1968).

MODE-K cells [2] = experiment: CD1d-restricted IL-10 production in MODE-K:NKT cell hybridoma co-culture; assay type: cell-based, mouse; details: for compound induced inhibition of CD1d-restricted IL-10 production when AhR expression is silenced / decrease of IL-10 production when AhR was silenced: AhR siRNA; for compound induced inhibition of CD1d-restricted IL-10 production when AhR expression is silenced: IEC:iNKT cell co-cultures; for IL-10 production / decrease of IL-10 production when AhR was silenced: tryptophan-deficient conditions supplemented with kyneurenic acid; for epithelial derived IL-10: no exogenous α-GC
MODE-K cells [3] = experiment: Surface CD1d loaded with α-GC (L363 antibody staining) in MODE-K cells; assay type: cell-based, mouse; details: for compound induced reduction of cell surface CD1d lipid antigen loading when AhR expression is silenced: AhR siRNA
From the text: (§1) In light of the decreased MTP expression observed in oxazolone treated IECs (FIG. 1B) and given that MTP loss alters the ability of CD1d to acquire exogenous antigens, such as α-GC, and CD1d elicited IL-10 responses by epithelial cells (Dougan et al. 2005, Dougan et al. 2007, Zeissig et al 2017, Sagiv et al. 2007, Brozovic et al. 2004, Olszak et al. 2014), it was investigated whether CD1d expression and lipid loading on oxazolone conditioned IECs.

C57Bl/6 mice [4] = experiment: Intra-rectal administration, colonic inflammation in vivo; parameters: species or system mouse; details: for IL-10 production in colonic explants: AhrΔIEC compared to wildtype controls, after intra-rectal challenge; for host protection, disease manifestations / weight loss: AhrΔIEC relative to Ahrfl/fl mice
Description: It was tested whether a dietary sourced minimal oxazole structure was sufficient to induce intestinal inflammation in vivo. […] To confirm this, the ability of oxazolone skin pre-sensitization to affect the responses to rectal challenge with TMO and vice-versa (FIG. 9D).
Next, it was tested whether B17 microcin derivatives could induce intestinal inflammation in vivo. Therefore, adequate quantities of a minimal B17 derivative (termed frag-oz, FIG. 2D) were synthesized to perform in vivo experiments and challenged animals via intra-rectal administration. […] These studies identify an oxazole containing microbial mimic that promotes CD1d-dependent intestinal inflammation independent of its classical anti-microbial activity.
These studies reveal a novel role for epithelial derived AhR signals in promoting mucosal inflammation when exposed to OxC.

recombinant IDO1 = recombinant IDO1 (Homo sapiens, UniProt P14902); experiment: Recombinant IDO1 conversion of L-tryptophan to formyl-kyneurenine; assay type: biochemical; details: compared to control (TMC) or vehicle
Chain of recombinant IDO1 (P14902 whole entry, species assumed): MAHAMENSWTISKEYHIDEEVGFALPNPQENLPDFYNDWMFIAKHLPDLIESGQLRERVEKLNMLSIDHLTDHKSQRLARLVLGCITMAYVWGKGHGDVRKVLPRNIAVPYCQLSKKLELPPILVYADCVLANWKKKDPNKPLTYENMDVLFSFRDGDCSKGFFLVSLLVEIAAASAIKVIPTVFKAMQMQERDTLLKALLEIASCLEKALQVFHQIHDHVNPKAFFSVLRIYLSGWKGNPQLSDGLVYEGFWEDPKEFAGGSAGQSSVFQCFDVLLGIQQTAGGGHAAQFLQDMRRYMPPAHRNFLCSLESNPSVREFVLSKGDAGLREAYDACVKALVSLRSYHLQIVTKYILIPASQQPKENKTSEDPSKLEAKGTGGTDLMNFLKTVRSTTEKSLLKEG

human IDO1(hIDO1) = target: T1, human IDO1(hIDO1) (Homo sapiens, UniProt P14902); experiment: In vitro screening assay for IDO1 enhancers; assay type: biochemical
T1 construct: made in house
T1 sequence (P14902 whole entry): as the sequence (P14902 whole entry, species assumed) above
Description: An in vitro screen for IDO1 enhancers was developed based on the following categories: Synthetic, dietary, and microbial compounds with structural similarity to oxazole template.
SDS-PAGE gel under reducing conditions showing that hIDO1 was purified to >95% purity after HiTrap HP chelating column.
HiPrep 16/60 Sephacryl S-200 HR column (GE Healthcare Life Sciences) size-exclusion chromatography in a buffer containing 10 mM HEPES buffer, 150 mM NaCl pH 7.0 of hIDO1 showing single peak and peak maximum of purified protein at 126.2 minutes.
Sizing fractions a3-a11 were checked for Heme absorbance at 402 and 280 nm. Fractions showing >2.0 Heme ratio were pooled and concentrated, and final 1.5 mg/ml concentrated protein was used for final bound heme estimation. A ratio of 2.22 at 402/280 nm confirmed heme binding to purified recombinant hIDO1 protein.

IECs = experiment: LC-MS of deuterated L-trp (D5-Trp) metabolites in IEC lysates; assay type: cell-based; details: within 6 hours of exposure
Description: IDO1 is a rate-limiting enzyme involved in tryptophan catabolism that generates formyl-kyneurenine which can be further metabolized into a variety of AhR agonists (Higuchi and Hayaishi Arch Biochem Biophys 1967, Nguyen and Bradfield 2008, Zelante et al. 2014). […] To specifically identify these tryptophan derived products, IECs were cultured with deuterated L-trp (D5-Trp) and performed high performance liquid chromatography mass spectrometry (LC-MS) on lysates stimulated with oxazolone, TMO, frag-oz or TMC control (FIG. 5C). […] Taken together these latter studies are consistent with a model in which exposure of IECs to oxazole containing compounds leads to the activation of IDO1 and generation of tryptophan-derived metabolites that induce the AhR pathway to downregulate CD1d-restricted responses associated with the production of IL-10 (FIG. 6).

DNA gyrase = DNA gyrase (Escherichia coli, UniProt P0AES4+P0AES6); details: in vitro; literature (Collin et al. 2013; Yorgey et al. 1994, Li et al. 1996); cited from earlier work
Chain of DNA gyrase (P0AES4 whole entry, one chain of several): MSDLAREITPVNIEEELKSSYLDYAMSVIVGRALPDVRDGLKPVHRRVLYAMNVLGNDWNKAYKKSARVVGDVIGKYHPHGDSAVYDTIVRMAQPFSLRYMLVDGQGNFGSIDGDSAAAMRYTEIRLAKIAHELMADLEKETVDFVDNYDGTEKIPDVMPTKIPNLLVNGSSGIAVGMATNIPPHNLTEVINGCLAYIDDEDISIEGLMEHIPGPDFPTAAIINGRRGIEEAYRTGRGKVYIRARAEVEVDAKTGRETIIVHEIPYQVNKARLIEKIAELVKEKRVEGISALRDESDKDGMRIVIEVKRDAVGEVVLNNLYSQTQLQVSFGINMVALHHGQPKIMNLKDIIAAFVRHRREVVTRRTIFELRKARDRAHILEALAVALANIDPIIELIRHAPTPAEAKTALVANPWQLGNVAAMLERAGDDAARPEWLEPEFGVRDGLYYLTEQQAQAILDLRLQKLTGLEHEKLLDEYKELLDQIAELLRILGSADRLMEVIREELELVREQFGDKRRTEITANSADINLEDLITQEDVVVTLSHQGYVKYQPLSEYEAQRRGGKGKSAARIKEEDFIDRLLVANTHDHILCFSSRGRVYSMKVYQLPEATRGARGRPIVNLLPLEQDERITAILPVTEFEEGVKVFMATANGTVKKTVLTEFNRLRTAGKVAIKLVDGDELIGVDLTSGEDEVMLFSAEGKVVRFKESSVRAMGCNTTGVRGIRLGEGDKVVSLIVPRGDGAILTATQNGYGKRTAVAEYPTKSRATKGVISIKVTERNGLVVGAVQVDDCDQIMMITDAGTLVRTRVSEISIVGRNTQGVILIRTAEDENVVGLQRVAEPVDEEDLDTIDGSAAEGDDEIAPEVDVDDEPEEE

primary hepatocytes = experiment: IL-10 production from primary hepatocytes co-cultured with 24.7 iNKT hybridoma; details: response to iNKT cells in the presence of α-GC
MODE-K cells [5] = experiment: Surface and intracellular CD1d protein expression in MODE-K cells (flow cytometry); assay type: cell-based, mouse; details: IECs stimulated with compound
From the text: as §1

[6] = system: bone marrow-derived dendritic cells; experiment: IFN-γ production in bone marrow-derived dendritic cell : 24.7 iNKT hybridoma co-culture; assay type: cell-based; details: bone marrow-derived dendritic cells with 24.7 iNKT hybridoma and α-GC
[7] = target: T2, aryl hydrocarbon receptor (AhR) (Mus musculus, UniProt P30561); experiment: AhR firefly luciferase reporter in IECs; assay type: cell-based; details: compared to vehicle or 1,2,4-trimethylcyclopentane
T2 construct: IECs were transfected with an AhR firefly luciferase reporter; endogenous in cells; host or cells: MODE-K (mouse intestinal epithelial cell line)
T2 sequence (P30561 10-848): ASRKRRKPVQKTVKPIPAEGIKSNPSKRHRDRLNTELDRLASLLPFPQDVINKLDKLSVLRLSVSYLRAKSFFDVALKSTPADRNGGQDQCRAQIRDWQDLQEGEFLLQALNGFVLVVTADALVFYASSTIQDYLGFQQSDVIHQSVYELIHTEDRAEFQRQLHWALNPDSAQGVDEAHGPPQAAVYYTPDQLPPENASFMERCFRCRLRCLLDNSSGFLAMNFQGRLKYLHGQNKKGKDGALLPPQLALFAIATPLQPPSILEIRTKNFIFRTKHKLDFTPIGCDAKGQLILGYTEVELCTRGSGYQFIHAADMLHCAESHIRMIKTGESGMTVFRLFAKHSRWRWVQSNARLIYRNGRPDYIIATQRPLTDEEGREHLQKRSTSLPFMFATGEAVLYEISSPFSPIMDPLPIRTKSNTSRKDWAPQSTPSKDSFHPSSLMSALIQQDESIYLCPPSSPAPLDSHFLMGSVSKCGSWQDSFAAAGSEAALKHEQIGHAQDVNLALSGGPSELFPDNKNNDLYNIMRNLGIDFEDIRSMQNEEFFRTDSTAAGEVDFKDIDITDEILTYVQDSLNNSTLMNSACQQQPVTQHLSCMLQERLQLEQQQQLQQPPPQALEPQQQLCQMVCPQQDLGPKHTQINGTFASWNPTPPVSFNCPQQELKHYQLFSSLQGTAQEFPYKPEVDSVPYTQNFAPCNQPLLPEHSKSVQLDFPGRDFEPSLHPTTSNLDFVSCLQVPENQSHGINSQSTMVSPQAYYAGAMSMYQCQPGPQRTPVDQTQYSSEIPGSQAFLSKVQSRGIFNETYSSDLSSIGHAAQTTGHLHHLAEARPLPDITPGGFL

C57Bl/6 mice [8] = details: germ free animals; Olszak et al. 2012; cited from earlier work
[9] = system: epithelial enriched colon fractions; details: after intra-rectal oxazolone challenge; Olszak et al. 2014; cited from earlier work
[10] = MODE-K cells conditioned with compound, normalized to β-actin
[11] = IECs cultured in tryptophan-deficient media
[12] = tryptophan-deficient media supplemented with exogenous L-tryptophan
[13] = IEC enriched colonic fractions after intra-rectal administration
[14] = intra-rectal administration, wildtype

SMILES | Ido1 transcripts (MODE-K cells [1]; [10]) | compound induced inhibition of CD1d-restricted IL-10 production when AhR expression is silenced (MODE-K cells [2]) | CD1d-restricted IL-10 production (MODE-K cells [2]; [11]) | IL-10 production (MODE-K cells [2]) | decrease of IL-10 production when AhR was silenced (MODE-K cells [2]) | CD1d-restricted IL-10 production (MODE-K cells [2]; [12]) | compound induced reduction of cell surface CD1d lipid antigen loading when AhR expression is silenced (MODE-K cells [3]) | IL-10 production in colonic explants (C57Bl/6 mice [4]) | host protection, disease manifestations (C57Bl/6 mice [4]; intra-rectal challenge) | weight loss (C57Bl/6 mice [4]; intra-rectal challenge) | ability of IDO1 to convert tryptophan to formyl-kyneurenine (recombinant IDO1) | metabolite that D5-Trp was further metabolized to upon stimulation (IECs) | compound induced inhibition of IL-10 production in hepatocytes from Ahr−/− mice (primary hepatocytes) | further results
CC(=O)NCc1nc(C(N)=O)co1 [frag-oz] | induced expression of these genes in vitro and in vivo | reversed | no longer attenuated | decreased IL-10 production | reduced when AhR was silenced | attenuation of CD1d-restricted IL-10 production | reversed | elevated IL-10 production | conferred host protection | diminished weight loss | enhanced | xanthurenic acid | resistance | Cyp1a1 transcripts (MODE-K cells [1]): induced expression of these genes in vitro and in vivo; Cyp1a1 transcripts in IEC in vivo (C57Bl/6 mice [4]; [13]): induction of Cyp1a1; Mttp transcripts in IEC in vivo (C57Bl/6 mice [4]; [13]): Decreased Mttp levels; inflammation in animals under GF conditions (C57Bl/6 mice [4]; germ free animals): induce inflammation; weight loss in GF animals compared to SPF animals (C57Bl/6 mice [4]; germ free vs SPF, intra-rectal challenge): increased weight loss; histopathology in GF animals (C57Bl/6 mice [4]; germ free, intra-rectal challenge): severe histopathology; Th1 and Th2 cytokines (IL-13, IFN-γ) from colon explants (C57Bl/6 mice [4]; [14]): induction of both Th1 and 2 cytokines; histological pathology of the colon (C57Bl/6 mice [4]; [14]): CD1d-dependent pathology was observed; IDO1 enzymatic activity (human IDO1(hIDO1)): IDO1 activators; anti-gyrase activity (DNA gyrase): no anti-gyrase activity
CCO/C=C1\N=C(c2ccccc2)OC1=O [oxazolone, 4-ethoxymethylene-2-phenyl-2-oxazolin-5-one] | induction; also recorded: induced expression of these genes in vitro and in vivo | reversed | no longer attenuated | decreased IL-10 production | reduced when AhR was silenced | attenuation of CD1d-restricted IL-10 production | reversed | elevated IL-10 production | conferred host protection | diminished weight loss | enhanced | kyneurenic acid | resistance | Mttp transcripts (MODE-K cells [1]; [10]): down-regulation; CD1d-restricted IL-10 production (MODE-K cells [2]; MODE-K pre-conditioned with compound, loaded with α-GC, co-culture with 24.7 iNKT hybridoma): attenuated IL-10 production; also recorded: limited; epithelial derived IL-10 (MODE-K cells [2]; co-culture with autoreactive iNKT cell hybridoma (24.8)): suppressed; epithelial derived IL-10 (MODE-K cells [2]; co-culture with autoreactive non-invariant dNKT cell hybridoma (14S.6)): suppressed; loading of α-GC on CD1d at the cell surface (L363 staining) (MODE-K cells [3]; MODE-K cells conditioned with compound): decreased loading of α-GC on CD1d at the cell surface; also recorded: decreased cell surface staining; CD1d protein expression or distribution between intracellular and cell surface pools (MODE-K cells [5]): did not display altered CD1d protein expression or distribution; IFN-γ production [6]: not affected; effect of skin pre-sensitization with the other compound (oxazolone or TMO) on rectal responses (C57Bl/6 mice [4]; topical sensitization followed by intra-rectal challenge): did not affect; AhR transcriptional activity [7]: induced robust AhR transcriptional activity; inflammation in animals under GF conditions (C57Bl/6 mice [8]): induce inflammation; Ido1 transcripts [9]: increased transcripts; Mttp transcripts [9]: decreased transcripts; cyp1a1 transcripts [9]: increased transcripts
